Patent publication US7737126B2, “Purine derivative” (Glaxo Group Limited, priority 2004, dated 2010)

How the values were obtained:
plasma protein = assay: Literature % plasma protein binding of calibration compounds; conditions: linear conversion of literature % PPB
Experimental: Calibration of the protein columns: The column performance check and the calibration have been performed before the analysis of every 96 well plate. The compounds used for the column calibrations were dissolved separately in 0.5 mg/ml concentration in 50% 2-propanol and 50% pH 7.4 ammonium acetate solution mixtures.
The literature % PPB (bound in plasma) values were converted to the linear free energy related logk values (logarithm of apparent affinity constant) using the following equation.

HSA = molecular target: T1, HSA (Homo sapiens, UniProt P02768); assay: HSA binding by immobilised HSA HPLC column; assay type: in vitro ADME; conditions: for logK measured / % HSA measured: HSA column, typical data; for logK measured: derived from the calibration curve
T1 construct: purchased Chromtech (Cheshire, UK)
T1 sequence (P02768 25-609): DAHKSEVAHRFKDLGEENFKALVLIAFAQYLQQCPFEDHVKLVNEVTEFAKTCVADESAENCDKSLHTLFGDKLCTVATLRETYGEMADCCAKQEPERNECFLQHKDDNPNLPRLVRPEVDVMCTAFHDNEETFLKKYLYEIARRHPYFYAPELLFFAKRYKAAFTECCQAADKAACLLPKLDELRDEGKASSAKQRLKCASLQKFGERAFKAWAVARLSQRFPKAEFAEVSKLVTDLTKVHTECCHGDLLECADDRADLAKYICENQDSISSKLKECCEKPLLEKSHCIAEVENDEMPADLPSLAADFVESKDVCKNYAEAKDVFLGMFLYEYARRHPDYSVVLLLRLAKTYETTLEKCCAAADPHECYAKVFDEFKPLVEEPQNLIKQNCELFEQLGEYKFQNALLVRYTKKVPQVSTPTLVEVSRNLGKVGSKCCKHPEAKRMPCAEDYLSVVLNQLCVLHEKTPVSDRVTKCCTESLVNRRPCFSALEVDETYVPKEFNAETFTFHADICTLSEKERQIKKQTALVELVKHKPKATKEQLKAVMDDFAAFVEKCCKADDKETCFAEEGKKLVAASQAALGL
Experimental: Instrument: Agilent HP1100 HPLC instruments were used throughout.
HPLC columns: Chromtech Immobilised HSA HPLC column 50×3 mm was purchased from Chromtech (Cheshire, UK).
Mobile phase and detection: The mobile phase A was 50 mM pH 7.4 ammonium acetate solution, while mobile phase B was 2-Propanol (HPLC grade, Runcorn, UK). The mobile phase flow rate was 1.8 ml/min. The column temperature was kept at 30° C. The gradient profile and run time were the same with each column, the linear gradient from 0 to 30% 2-propanol was applied from 0 to 3 minutes. From 3 to 10 minutes, the mobile phase composition was constant 30% 2-propanol and 70% 50-mM ammonium acetate. […] Each separation was stopped after 15 minutes.
Detection: Chromatograms were recorded at 230 and 254 nm by a diode array UV absorption detector at room temperature.

[1] = molecular target: T2, human adenosine A1 receptor (Homo sapiens, UniProt P30542); assay: Agonist activity against adenosine A1 receptor (CHO or yeast assay); assay type: cell-based; conditions: A2A over A1
T2 construct: expressed in transfected cells; host or cells: CHO cells or yeast cells
T2 sequence (P30542 1-326): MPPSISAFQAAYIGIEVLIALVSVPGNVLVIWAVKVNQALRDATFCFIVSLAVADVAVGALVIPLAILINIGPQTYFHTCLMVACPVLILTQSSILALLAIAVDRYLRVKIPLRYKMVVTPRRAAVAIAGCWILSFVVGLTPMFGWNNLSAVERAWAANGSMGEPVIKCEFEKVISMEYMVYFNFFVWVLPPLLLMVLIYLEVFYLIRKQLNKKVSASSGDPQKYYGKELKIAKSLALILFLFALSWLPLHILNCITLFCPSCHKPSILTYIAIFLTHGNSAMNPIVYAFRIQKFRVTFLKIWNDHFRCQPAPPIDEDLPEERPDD
Experimental: (§1) 1) In Vitro: Agonist Activity Against Adenosine A1, A2A, A2B and A3 Receptors.
(§2) The agonist potency and selectivity of compounds against human adenosine receptors is determined using Chinese hamster ovary (CHO) cells or yeast cells transfected with the gene for the relevant receptor.
(§3) Two methods may be used in the CHO cells. (i) For the SPAP assay, cells are also transfected with cyclic AMP (cAMP) response elements promoting the gene for secreted placental alkaline phosphatase (SPAP). Changes in cAMP are measured as changes in the levels of SPAP. (ii) The DiscoveRx assay is an enzyme complementation assay that involves two fragments of β-galactosidase, enzyme acceptor (EA) and enzyme donor (ED). […] For both methods the effect of test compounds is determined by their effects on basal levels of cAMP (A2A and A2B) or on forskolin enhanced cAMP (A1 and A3).
(§4) For the yeast assay, receptor stimulation causes activation of a reporter gene, namely FUS1-HIS3, resulting in histidine production which is essential for cell growth. […] This response is measured from the production of the exoglucanase, an enzyme secreted constitutively by yeast cells.
(§5) In all of the in vitro assays the activity of test compounds is expressed as a ratio to that of the non-selective adenosine receptor agonist, N-ethyl carboxamide adenosine (NECA).

[2] = molecular target: T3, human adenosine A2B receptor (Homo sapiens, UniProt P29275); assay: Agonist activity against adenosine A2B receptor (CHO or yeast assay); assay type: cell-based; conditions: A2A over A2B
T3 construct: expressed in transfected cells; host or cells: CHO cells or yeast cells
T3 sequence (P29275 1-332): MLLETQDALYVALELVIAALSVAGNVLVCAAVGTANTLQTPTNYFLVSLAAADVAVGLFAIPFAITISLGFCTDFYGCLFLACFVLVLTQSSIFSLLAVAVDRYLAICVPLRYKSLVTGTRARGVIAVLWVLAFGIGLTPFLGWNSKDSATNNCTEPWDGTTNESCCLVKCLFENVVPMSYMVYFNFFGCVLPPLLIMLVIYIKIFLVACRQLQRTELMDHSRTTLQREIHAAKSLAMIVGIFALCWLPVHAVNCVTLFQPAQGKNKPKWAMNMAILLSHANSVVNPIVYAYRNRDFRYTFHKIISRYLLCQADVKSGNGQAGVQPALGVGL
Experimental: as §1, §2, §3, §4, §5

[3] = molecular target: T4, human adenosine A3 receptor (Homo sapiens, UniProt P0DMS8); assay: Agonist activity against adenosine A3 receptor (CHO or yeast assay); assay type: cell-based; conditions: A2A over A3
T4 construct: expressed in transfected cells; host or cells: CHO cells or yeast cells
T4 sequence (P0DMS8 1-318): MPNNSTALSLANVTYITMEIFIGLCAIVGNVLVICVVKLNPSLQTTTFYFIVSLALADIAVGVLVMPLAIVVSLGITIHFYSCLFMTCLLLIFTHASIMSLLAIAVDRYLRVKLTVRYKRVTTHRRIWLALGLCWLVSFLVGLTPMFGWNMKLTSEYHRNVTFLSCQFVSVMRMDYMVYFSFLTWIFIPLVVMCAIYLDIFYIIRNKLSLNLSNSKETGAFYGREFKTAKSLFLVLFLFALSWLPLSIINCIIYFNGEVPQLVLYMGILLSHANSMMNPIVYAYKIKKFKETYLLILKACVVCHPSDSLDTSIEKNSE
Experimental: as §1, §2, §3, §4, §5

neutrophil accumulation = assay: In vivo anti-inflammatory LPS model; design: species or system rat; conditions: male CD albino rats, intratracheal, dose of 30 μg/kg or less, lung lavage 4 h after LPS challenge
Experimental: In Vivo Anti-Inflammatory Agonist Activity LPS Model: Test compound was administered to male CD albino rats prior to exposure to LPS. Compound (or vehicle) was injected in a 200 ul volume into the trachea , via a cannula placed trans-orally, whilst the animals were under isoflurane anaesthesia. After a recovery period of 30 min, rats were placed in a chamber and exposed to an aerosol of E. Coli-derived LPS for 15 min. Four hours after LPS challenge the rats were killed, the lungs lavaged, and both total and differential cell counts determined.

[4] = Cardiovascular model (therapeutic index); assay type: in vivo, rat; conditions: anaesthetised male Wistar rats, administered into the trachea
Experimental: 3) Therapeutic Index (TI) Cardiovascular Model: Male Wistar rats were anaesthetised with chloralose/pentobarbitone and the jugular vein, left carotid artery and trachea were cannulated. The arterial cannula was connected to a transducer for the continuous measurement of blood pressure and heart rate. Compound (or vehicle) was administered into the trachea in a 100 ul volume, and the dose of test compound giving a 20% increase in blood pressure and heart rate (ED20) was determined. The TI for a test compound is calculated as the ratio of the ED20 in the cardiovascular model compared with the ED50 in the LPS model.

SMILES	lit logK (plasma protein)	logK measured (HSA)	% HSA measured (HSA) [%]	further results
O=C(O)Cc1ccccc1Nc1c(Cl)cccc1Cl [Diclofenac]	1.92			
NC(=O)N1c2ccccc2C=Cc2ccccc21 [Carbamazepine]	0.46	0.50	76.8	
CCCC1O[C@@H]2C[C@H]3[C@@H]4CCC5=CC(=O)C=C[C@]5(C)[C@H]4[C@@H](O)C[C@]3(C)[C@]2(C(=O)CO)O1 (stereo partly drawn) [Budesonide]	0.83	0.70	84.2	
CNC(=C[N+](=O)[O-])NCCSCc1csc(CN(C)C)n1 [Nizatidine]	−0.28	−0.35	31.1	
CCn1nnc([C@H]2O[C@@H](n3cnc4c(N[C@H]5CC[C@H](Nc6nc(NCCc7cn(C)cn7)nc7c6ncn7[C@@H]6O[C@H](c7nnn(CC)n7)[C@@H](O)[C@H]6O)CC5)nc(NCCc5cn(C)cn5)nc43)[C@H](O)[C@@H]2O)n1.O=CO [Formic acid—(2R,3R,4S,5R,2′R,3′R,4′S,5′R)-2,2′-{trans-1,4-cyclohexanediylbis[imino(2-{[2-(1-methyl-1H-imidazol-4-yl)ethyl]amino}-9H-purine-6,9-diyl)]}bis[5-(2-ethyl-2H-tetrazol-5-yl)tetrahydro-3,4-furandiol] (4:1)]				selectivity for A2A than A1 [1]: greater than 100 fold; selectivity for A2A than A2B [2]: greater than 100 fold; selectivity for A2A than A3 [3]: greater than 100 fold; reduction in neutrophil accumulation (neutrophil accumulation): greater than 50%; dose giving a 20% increase in blood pressure and heart rate (ED20) [4]: about 7 μg/kg; binding to HSA (HSA; immobilised HSA HPLC column, pH 7.4): greater than 90%
CN1C(C(=O)Nc2ccccn2)=C(O)c2ccccc2S1(=O)=O [Piroxicam]	1.16	1.10	93.6	
O=C1CN=C(c2ccccn2)c2cc(Br)ccc2N1 [Bromazepam]	0.17	0.38	71.2	
COC(=O)C1=C(C)NC(C)=C(C(=O)OCCN(C)Cc2ccccc2)C1c1cccc([N+](=O)[O-])c1 (stereo not drawn) [Nicardipine]		1.38	97.0	
